From publication PMC11604427 (Frontiers in Pharmacology, 2024)

What was measured:
Test in all cases: SelectScreen kinase selectivity assay
Format in all cases: biochemical
ABL1 = molecular target: T1, ABL1 (Homo sapiens, UniProt P00519)
T1 construct: purchased Thermo Fisher Scientific (SelectScreen service)
Experimental: (§1) The kinase selectivity analysis of PKHD-5 was performed using the SelectScreen kinase analysis service provided by Thermo Fisher Scientific. The experiment initially involved the preparation of a series of inhibitor solutions at varying concentrations, which were then reacted with various kinase targets under standardized conditions to calculate the percentage inhibition for each test solution. Ultimately, the IC50 values were calculated based on the concentration-inhibition curves by fitting a four-parameter logistic curve, thereby assessing the potency and selectivity of the inhibitors. The analysis results are detailed in Supplementary Table S1.

ABL2 = molecular target: T2, ABL2 (Homo sapiens, UniProt P42684)
T2 construct: purchased Thermo Fisher Scientific (SelectScreen service)
Experimental: as §1

AXL = molecular target: T3, AXL (Homo sapiens, UniProt P30530)
T3 construct: purchased Thermo Fisher Scientific (SelectScreen service)
Experimental: as §1

BLK = molecular target: T4, BLK (Homo sapiens, UniProt P51451)
T4 construct: purchased Thermo Fisher Scientific (SelectScreen service)
Experimental: as §1

BMX = molecular target: T5, BMX (Homo sapiens, UniProt P51813)
T5 construct: purchased Thermo Fisher Scientific (SelectScreen service)
Experimental: as §1

BTK = molecular target: T6, BTK (Homo sapiens, UniProt Q06187)
T6 construct: purchased Thermo Fisher Scientific (SelectScreen service)
Experimental: as §1

CDK1 = molecular target: T7, CDK1 (Homo sapiens, UniProt P06493)
T7 construct: purchased Thermo Fisher Scientific (SelectScreen service)
Experimental: as §1

DDR1 = molecular target: T8, DDR1 (Homo sapiens, UniProt Q08345)
T8 construct: purchased Thermo Fisher Scientific (SelectScreen service)
Experimental: as §1

DDR2 = molecular target: T9, DDR2 (Homo sapiens, UniProt Q16832)
T9 construct: purchased Thermo Fisher Scientific (SelectScreen service)
Experimental: as §1

EPHA1 = molecular target: T10, EPHA1 (Homo sapiens, UniProt P21709)
T10 construct: purchased Thermo Fisher Scientific (SelectScreen service)
Experimental: as §1

EPHA2 = molecular target: T11, EPHA2 (Homo sapiens, UniProt P29317)
T11 construct: purchased Thermo Fisher Scientific (SelectScreen service)
Experimental: as §1

EPHA3 = molecular target: T12, EPHA3 (Homo sapiens, UniProt P29320)
T12 construct: purchased Thermo Fisher Scientific (SelectScreen service)
Experimental: as §1

EPHA4 = molecular target: T13, EPHA4 (Homo sapiens, UniProt P54764)
T13 construct: purchased Thermo Fisher Scientific (SelectScreen service)
Experimental: as §1

EPHA5 = molecular target: T14, EPHA5 (Homo sapiens, UniProt P54756)
T14 construct: purchased Thermo Fisher Scientific (SelectScreen service)
Experimental: as §1

EPHA6 = molecular target: T15, EPHA6 (Homo sapiens, UniProt Q9UF33)
T15 construct: purchased Thermo Fisher Scientific (SelectScreen service)
Experimental: as §1

EPHB1 = molecular target: T16, EPHB1 (Homo sapiens, UniProt P54762)
T16 construct: purchased Thermo Fisher Scientific (SelectScreen service)
Experimental: as §1

EPHB2 = molecular target: T17, EPHB2 (Homo sapiens, UniProt P29323)
T17 construct: purchased Thermo Fisher Scientific (SelectScreen service)
Experimental: as §1

ERBB2 = molecular target: T18, ERBB2 (Homo sapiens, UniProt P04626)
T18 construct: purchased Thermo Fisher Scientific (SelectScreen service)
Experimental: as §1

FES = molecular target: T19, FES (Homo sapiens, UniProt P07332)
T19 construct: purchased Thermo Fisher Scientific (SelectScreen service)
Experimental: as §1

FGFR2 = molecular target: T20, FGFR2 (Homo sapiens, UniProt P21802)
T20 construct: purchased Thermo Fisher Scientific (SelectScreen service)
Experimental: as §1

FGR = molecular target: T21, FGR (Homo sapiens, UniProt P09769)
T21 construct: purchased Thermo Fisher Scientific (SelectScreen service)
Experimental: as §1

FRK = molecular target: T22, FRK (Homo sapiens, UniProt P42685)
T22 construct: purchased Thermo Fisher Scientific (SelectScreen service)
Experimental: as §1

INSR = molecular target: T23, INSR (Homo sapiens, UniProt P06213)
T23 construct: purchased Thermo Fisher Scientific (SelectScreen service)
Experimental: as §1

JAK2 = molecular target: T24, JAK2 (Homo sapiens, UniProt O60674)
T24 construct: purchased Thermo Fisher Scientific (SelectScreen service)
Experimental: as §1

KIT = molecular target: T25, KIT (Homo sapiens, UniProt P10721)
T25 construct: purchased Thermo Fisher Scientific (SelectScreen service)
Experimental: as §1

LTK = molecular target: T26, LTK (Homo sapiens, UniProt P29376)
T26 construct: purchased Thermo Fisher Scientific (SelectScreen service)
Experimental: as §1

MERTK = molecular target: T27, MERTK (Homo sapiens, UniProt Q12866)
T27 construct: purchased Thermo Fisher Scientific (SelectScreen service)
Experimental: as §1

MET = molecular target: T28, MET (Homo sapiens, UniProt P08581)
T28 construct: purchased Thermo Fisher Scientific (SelectScreen service)
Experimental: as §1

MST1R = molecular target: T29, MST1R (Homo sapiens, UniProt Q04912)
T29 construct: purchased Thermo Fisher Scientific (SelectScreen service)
Experimental: as §1

MUSK = molecular target: T30, MUSK (Homo sapiens, UniProt O15146)
T30 construct: purchased Thermo Fisher Scientific (SelectScreen service)
Experimental: as §1

NTRK2 = molecular target: T31, NTRK2 (Homo sapiens, UniProt Q16620)
T31 construct: purchased Thermo Fisher Scientific (SelectScreen service)
Experimental: as §1

NTRK3 = molecular target: T32, NTRK3 (Homo sapiens, UniProt Q16288)
T32 construct: purchased Thermo Fisher Scientific (SelectScreen service)
Experimental: as §1

PDGFRA = molecular target: T33, PDGFRA (Homo sapiens, UniProt P16234)
T33 construct: purchased Thermo Fisher Scientific (SelectScreen service)
Experimental: as §1

PDGFRB = molecular target: T34, PDGFRB (Homo sapiens, UniProt P09619)
T34 construct: purchased Thermo Fisher Scientific (SelectScreen service)
Experimental: as §1

PIM1 = molecular target: T35, PIM1 (Homo sapiens, UniProt P11309)
T35 construct: purchased Thermo Fisher Scientific (SelectScreen service)
Experimental: as §1

PLK1 = molecular target: T36, PLK1 (Homo sapiens, UniProt P53350)
T36 construct: purchased Thermo Fisher Scientific (SelectScreen service)
Experimental: as §1

PLK2 = molecular target: T37, PLK2 (Homo sapiens, UniProt Q9NYY3)
T37 construct: purchased Thermo Fisher Scientific (SelectScreen service)
Experimental: as §1

PLK3 = molecular target: T38, PLK3 (Homo sapiens, UniProt Q9H4B4)
T38 construct: purchased Thermo Fisher Scientific (SelectScreen service)
Experimental: as §1

RAF1 = molecular target: T39, RAF1 (Homo sapiens, UniProt P04049, Y340D/Y341D)
T39 construct: purchased Thermo Fisher Scientific (SelectScreen service)
Experimental: as §1

YES1 = molecular target: T40, YES1 (Homo sapiens, UniProt P07947)
T40 construct: purchased Thermo Fisher Scientific (SelectScreen service)
Experimental: as §1

ZAK = molecular target: T41, ZAK (Homo sapiens, UniProt Q9NYL2)
T41 construct: purchased Thermo Fisher Scientific (SelectScreen service)
Experimental: as §1

ZAP70 = molecular target: T42, ZAP70 (Homo sapiens, UniProt P43403)
T42 construct: purchased Thermo Fisher Scientific (SelectScreen service)
Experimental: as §1

Measured: IC50

T8 sequence (Q08345 19-913): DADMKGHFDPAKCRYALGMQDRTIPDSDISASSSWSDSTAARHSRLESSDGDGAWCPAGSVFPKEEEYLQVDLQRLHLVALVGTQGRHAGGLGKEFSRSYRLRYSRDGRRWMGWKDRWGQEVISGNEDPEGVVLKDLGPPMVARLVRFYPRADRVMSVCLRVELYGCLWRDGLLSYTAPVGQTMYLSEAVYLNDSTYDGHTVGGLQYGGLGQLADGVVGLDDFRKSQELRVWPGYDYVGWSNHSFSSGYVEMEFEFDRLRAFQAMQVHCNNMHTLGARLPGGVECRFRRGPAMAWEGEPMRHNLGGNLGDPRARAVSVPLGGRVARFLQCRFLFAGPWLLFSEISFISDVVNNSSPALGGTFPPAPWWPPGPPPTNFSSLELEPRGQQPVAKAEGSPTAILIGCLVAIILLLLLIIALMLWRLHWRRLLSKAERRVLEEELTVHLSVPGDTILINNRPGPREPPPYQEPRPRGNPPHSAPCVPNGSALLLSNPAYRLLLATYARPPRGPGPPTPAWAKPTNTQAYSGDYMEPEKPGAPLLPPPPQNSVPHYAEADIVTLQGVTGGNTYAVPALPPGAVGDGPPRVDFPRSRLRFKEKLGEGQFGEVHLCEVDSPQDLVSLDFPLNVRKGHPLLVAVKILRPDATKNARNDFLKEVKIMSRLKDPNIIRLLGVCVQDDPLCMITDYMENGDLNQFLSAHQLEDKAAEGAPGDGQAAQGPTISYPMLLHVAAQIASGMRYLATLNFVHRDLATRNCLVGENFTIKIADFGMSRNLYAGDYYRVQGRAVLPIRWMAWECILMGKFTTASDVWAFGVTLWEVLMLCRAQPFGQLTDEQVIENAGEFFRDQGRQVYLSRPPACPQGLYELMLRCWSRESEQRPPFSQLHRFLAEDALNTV
T6 sequence (Q06187 whole entry): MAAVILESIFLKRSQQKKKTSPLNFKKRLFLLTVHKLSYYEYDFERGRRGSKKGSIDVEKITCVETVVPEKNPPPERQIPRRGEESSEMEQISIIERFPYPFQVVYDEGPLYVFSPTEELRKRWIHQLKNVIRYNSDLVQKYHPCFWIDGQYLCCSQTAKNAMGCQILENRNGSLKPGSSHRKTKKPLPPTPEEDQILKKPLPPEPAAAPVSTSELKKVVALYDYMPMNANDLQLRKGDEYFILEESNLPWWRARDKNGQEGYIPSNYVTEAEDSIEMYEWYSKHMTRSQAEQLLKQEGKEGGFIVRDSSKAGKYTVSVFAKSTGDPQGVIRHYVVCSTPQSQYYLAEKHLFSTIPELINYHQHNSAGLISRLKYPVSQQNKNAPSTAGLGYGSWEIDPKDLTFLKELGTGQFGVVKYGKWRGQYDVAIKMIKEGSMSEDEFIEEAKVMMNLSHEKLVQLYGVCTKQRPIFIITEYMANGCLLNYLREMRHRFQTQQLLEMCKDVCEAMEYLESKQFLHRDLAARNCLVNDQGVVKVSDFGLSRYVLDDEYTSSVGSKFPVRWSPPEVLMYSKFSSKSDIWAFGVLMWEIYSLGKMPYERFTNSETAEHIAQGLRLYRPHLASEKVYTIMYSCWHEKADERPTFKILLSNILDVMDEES
T39 sequence (P04049 306-648 Y340D/Y341D limits assumed): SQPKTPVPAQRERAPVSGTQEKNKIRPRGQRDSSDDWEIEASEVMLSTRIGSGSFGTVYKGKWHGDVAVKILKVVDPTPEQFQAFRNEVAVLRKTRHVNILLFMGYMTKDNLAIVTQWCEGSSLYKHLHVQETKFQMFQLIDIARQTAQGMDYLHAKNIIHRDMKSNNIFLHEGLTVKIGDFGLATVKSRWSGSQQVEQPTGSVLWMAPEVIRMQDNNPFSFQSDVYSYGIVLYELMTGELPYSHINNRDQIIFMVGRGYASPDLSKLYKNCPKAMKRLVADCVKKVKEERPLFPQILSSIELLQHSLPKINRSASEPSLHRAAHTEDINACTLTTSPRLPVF
T40 sequence (P07947 whole entry): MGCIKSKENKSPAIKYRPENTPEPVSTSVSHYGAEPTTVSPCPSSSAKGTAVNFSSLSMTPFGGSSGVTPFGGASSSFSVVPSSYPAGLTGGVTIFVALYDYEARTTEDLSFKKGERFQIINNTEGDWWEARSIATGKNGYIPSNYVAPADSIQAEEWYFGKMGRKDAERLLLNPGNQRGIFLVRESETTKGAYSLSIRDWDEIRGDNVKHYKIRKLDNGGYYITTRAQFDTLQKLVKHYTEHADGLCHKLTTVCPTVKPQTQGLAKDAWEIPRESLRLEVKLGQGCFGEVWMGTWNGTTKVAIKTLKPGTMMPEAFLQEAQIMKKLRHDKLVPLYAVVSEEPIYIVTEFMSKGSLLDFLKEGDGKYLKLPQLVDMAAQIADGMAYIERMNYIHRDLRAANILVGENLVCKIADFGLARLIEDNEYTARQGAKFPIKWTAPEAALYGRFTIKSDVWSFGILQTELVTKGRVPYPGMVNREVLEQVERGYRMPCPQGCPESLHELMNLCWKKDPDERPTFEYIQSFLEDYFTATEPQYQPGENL
T29 sequence (Q04912 25-1400): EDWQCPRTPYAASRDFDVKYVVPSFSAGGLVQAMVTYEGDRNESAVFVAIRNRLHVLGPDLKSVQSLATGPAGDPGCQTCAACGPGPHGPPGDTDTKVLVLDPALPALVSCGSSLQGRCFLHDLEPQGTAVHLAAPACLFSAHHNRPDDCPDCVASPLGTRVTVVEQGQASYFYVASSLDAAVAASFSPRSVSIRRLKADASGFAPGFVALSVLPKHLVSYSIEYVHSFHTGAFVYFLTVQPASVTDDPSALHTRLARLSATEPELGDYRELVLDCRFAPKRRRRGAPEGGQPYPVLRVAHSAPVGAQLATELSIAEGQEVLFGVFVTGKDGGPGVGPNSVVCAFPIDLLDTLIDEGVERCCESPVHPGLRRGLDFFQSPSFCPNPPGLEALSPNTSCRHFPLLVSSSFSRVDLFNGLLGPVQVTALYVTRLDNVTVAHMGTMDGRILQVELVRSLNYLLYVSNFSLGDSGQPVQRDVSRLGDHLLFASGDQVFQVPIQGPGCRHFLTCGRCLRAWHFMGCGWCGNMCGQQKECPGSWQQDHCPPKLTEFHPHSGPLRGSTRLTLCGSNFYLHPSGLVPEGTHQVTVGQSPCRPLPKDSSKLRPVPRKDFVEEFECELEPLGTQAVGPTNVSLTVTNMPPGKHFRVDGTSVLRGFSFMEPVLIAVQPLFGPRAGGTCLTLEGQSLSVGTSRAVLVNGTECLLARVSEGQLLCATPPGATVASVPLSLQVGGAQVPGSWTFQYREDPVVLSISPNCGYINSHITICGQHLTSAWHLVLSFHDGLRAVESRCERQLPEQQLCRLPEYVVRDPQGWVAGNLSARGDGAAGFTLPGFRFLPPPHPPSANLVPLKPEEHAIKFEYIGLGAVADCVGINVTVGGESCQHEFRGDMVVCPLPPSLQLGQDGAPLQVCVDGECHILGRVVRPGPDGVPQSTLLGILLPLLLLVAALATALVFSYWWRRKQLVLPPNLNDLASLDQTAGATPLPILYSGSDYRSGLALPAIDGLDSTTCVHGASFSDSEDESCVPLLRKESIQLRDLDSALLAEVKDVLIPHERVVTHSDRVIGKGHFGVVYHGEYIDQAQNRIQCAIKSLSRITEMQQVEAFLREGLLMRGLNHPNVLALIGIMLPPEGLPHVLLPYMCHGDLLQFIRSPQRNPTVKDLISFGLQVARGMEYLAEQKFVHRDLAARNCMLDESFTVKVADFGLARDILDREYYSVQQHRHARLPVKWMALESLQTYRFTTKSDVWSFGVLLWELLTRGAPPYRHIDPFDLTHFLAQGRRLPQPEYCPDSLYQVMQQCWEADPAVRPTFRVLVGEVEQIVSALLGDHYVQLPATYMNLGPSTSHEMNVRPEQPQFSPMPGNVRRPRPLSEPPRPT
T14 sequence (P54756 25-1037): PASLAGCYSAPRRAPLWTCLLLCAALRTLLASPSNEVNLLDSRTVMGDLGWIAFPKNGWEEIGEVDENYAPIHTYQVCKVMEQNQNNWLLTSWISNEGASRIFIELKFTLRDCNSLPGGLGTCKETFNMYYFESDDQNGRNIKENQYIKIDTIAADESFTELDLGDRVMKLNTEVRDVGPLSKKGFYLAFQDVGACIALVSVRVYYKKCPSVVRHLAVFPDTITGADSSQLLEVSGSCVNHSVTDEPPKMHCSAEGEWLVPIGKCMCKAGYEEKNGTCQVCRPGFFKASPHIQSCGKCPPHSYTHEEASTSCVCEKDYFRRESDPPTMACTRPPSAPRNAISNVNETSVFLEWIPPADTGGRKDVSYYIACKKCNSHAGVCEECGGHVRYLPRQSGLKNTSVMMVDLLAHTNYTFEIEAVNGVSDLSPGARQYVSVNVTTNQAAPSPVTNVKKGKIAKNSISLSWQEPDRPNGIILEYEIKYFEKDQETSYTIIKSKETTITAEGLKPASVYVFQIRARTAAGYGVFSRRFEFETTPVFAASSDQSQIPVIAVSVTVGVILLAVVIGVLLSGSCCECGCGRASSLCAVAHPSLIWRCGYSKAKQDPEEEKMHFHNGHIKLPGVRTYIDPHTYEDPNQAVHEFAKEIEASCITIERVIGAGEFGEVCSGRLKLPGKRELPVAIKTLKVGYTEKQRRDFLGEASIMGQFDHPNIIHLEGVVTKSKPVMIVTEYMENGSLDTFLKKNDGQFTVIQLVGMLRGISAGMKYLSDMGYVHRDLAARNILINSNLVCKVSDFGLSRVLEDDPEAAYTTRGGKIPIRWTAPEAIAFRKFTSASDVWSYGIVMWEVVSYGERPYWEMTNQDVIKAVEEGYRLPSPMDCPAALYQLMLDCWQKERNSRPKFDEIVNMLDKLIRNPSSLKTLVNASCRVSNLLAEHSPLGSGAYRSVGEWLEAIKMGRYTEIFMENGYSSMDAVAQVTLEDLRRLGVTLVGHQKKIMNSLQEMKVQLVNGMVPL

Cc1ccc(O)c(C)c1-n1c(N)c(C(N)=O)c2cc(CCCCCC(=O)NO)c(C)nc21 [PKHD-5]
> 50 µM: ABL1 | ABL2 | AXL | BLK | BMX | BTK | CDK1 | DDR1 | DDR2 | EPHA1 | EPHA2 | EPHA3 | EPHA4 | EPHA5 | EPHA6 | EPHB1 | EPHB2 | ERBB2 | FES | FGFR2 | FGR | FRK | INSR | JAK2 | KIT | LTK | MERTK | MET | MST1R | MUSK | NTRK2 | NTRK3 | PDGFRA | PDGFRB | PIM1 | PLK1 | PLK2 | PLK3 | RAF1 | YES1 | ZAK | ZAP70
